From paper PMC9516332 (Frontiers in Oncology, 2022)

How the values were obtained:
Experiment in all cases: Kinase panel profiling at 1 µmol/L (MSA or IMAP), percentage inhibition
Assay type in all cases: biochemical
[1] = target: T1, panel of 255 wild-type kinases (Homo sapiens, UniProt O94806); settings: kinase PKD3; 1 µmol/L single concentration; read-out: %-inhibition at 1 µmol/L, PKD3
T1 sequence (O94806 1-890): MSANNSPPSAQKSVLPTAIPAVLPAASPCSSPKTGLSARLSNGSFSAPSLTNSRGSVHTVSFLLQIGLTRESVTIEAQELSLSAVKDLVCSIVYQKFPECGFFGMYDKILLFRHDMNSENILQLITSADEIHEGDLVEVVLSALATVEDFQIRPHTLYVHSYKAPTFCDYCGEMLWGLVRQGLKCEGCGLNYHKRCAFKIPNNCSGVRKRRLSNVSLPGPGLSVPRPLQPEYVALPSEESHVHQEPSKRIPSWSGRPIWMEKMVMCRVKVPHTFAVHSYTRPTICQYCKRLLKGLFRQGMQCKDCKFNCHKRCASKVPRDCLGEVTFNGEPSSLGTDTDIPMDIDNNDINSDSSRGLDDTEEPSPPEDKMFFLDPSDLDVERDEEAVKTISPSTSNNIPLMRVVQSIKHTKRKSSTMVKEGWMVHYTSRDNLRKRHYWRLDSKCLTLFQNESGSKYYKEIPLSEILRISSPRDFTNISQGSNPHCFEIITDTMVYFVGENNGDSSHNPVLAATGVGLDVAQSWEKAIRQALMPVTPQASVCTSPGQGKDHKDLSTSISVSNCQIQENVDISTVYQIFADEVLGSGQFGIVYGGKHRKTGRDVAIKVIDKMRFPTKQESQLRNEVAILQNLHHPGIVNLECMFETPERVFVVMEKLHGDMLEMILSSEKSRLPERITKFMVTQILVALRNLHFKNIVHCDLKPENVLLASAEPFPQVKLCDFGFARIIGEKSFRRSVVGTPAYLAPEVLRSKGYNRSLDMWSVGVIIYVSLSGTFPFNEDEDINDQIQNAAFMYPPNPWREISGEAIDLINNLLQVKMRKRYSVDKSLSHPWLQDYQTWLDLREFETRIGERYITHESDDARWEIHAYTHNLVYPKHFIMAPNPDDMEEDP

[2] = target: panel of 255 wild-type kinases (Homo sapiens, UniProt Q8IU85); settings: CaMK1δ kinase assay; 1 µmol/L single concentration; read-out: %-inhibition CaMK1δ
[3] = target: panel of 255 wild-type kinases (Homo sapiens, UniProt Q9H1R3); settings: kinase skMLCK; 1 µmol/L single concentration; read-out: %-inhibition at 1 µmol/L, skMLCK
[4] = target: T2, panel of 255 wild-type kinases (Homo sapiens, UniProt Q9NRM7); settings: kinase LATS2; 1 µmol/L single concentration; read-out: %-inhibition at 1 µmol/L, LATS2
T2 sequence (Q9NRM7 1-1088): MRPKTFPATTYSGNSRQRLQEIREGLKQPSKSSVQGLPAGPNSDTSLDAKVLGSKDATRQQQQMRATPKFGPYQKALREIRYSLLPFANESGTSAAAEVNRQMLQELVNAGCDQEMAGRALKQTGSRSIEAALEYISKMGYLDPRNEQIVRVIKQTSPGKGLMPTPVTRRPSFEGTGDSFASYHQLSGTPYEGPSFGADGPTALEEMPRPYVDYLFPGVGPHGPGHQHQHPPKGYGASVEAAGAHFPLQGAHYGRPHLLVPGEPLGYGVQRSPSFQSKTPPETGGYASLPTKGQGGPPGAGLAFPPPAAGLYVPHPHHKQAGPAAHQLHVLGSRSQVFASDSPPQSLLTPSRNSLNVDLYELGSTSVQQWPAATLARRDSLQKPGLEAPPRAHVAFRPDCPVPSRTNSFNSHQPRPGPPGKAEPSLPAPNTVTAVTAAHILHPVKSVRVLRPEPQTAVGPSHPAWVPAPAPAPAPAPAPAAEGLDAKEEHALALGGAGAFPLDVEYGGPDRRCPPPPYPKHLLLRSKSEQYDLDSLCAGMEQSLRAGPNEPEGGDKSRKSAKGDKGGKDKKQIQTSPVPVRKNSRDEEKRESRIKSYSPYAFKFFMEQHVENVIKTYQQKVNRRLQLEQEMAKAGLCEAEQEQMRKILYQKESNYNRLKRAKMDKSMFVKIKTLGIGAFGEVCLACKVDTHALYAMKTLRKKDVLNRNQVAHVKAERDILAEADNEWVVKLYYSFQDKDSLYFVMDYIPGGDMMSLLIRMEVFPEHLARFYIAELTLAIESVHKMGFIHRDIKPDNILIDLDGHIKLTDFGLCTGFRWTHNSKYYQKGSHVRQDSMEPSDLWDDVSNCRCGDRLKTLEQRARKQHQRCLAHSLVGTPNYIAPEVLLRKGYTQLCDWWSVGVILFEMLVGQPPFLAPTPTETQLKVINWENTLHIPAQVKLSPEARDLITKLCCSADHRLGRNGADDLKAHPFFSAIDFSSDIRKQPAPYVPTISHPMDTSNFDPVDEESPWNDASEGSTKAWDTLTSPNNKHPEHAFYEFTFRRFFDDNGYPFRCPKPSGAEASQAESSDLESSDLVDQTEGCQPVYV

[5] = target: panel of 255 wild-type kinases (Homo sapiens, UniProt P09769); settings: kinase FGR; 1 µmol/L single concentration; read-out: %-inhibition at 1 µmol/L, FGR
[6] = target: T3, panel of 255 wild-type kinases (Homo sapiens, UniProt Q96KB5); settings: kinase PBK; 1 µmol/L single concentration; read-out: %-inhibition at 1 µmol/L, PBK
T3 sequence (Q96KB5 1-322): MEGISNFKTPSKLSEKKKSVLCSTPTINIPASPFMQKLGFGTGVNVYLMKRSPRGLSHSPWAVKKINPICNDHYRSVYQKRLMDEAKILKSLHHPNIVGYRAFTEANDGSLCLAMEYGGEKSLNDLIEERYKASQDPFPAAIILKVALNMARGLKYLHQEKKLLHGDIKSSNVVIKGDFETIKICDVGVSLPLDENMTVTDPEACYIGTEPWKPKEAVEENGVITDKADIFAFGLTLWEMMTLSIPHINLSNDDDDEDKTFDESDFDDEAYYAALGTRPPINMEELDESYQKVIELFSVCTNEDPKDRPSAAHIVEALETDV

[7] = target: panel of 255 wild-type kinases (Homo sapiens, UniProt P23458); settings: kinase JAK1; 1 µmol/L single concentration; read-out: %-inhibition at 1 µmol/L, JAK1

| SMILES | inhibition at 1 µM [1] | inhibition at 1 µM [2] | inhibition at 1 µM [3] | inhibition at 1 µM [4] | inhibition at 1 µM [5] | inhibition at 1 µM [6] | inhibition at 1 µM [7] |
| --- | --- | --- | --- | --- | --- | --- | --- |
| C[C@H]1Oc2cc(cnc2N)-c2c(nn(C)c2C#N)CN(C)C(=O)c2ccc(F)cc21 [lorlatinib] | 1.46% | 7% | -0.456% | 6% | 22% | 1.39% | -0.817% |
| CCN1CCN(c2ccc(Nc3cc(N(C)C(=O)Nc4c(Cl)c(OC)cc(OC)c4Cl)ncn3)cc2)CC1 [infigratinib] | 11% | 2.23% | -3% | -3.67% | 46% | -1.71% | 2.57% |
| COC(=O)N[C@@H](C)CNc1nccc(-c2cn(C(C)C)nc2-c2cc(Cl)cc(NS(C)(=O)=O)c2F)n1 [encorafenib] | 5% | -7% | -4.51% | 3.49% | 1.37% | 8% | 3.6% |
| CCc1nc(C(N)=O)c(Nc2ccc(N3CCC(N4CCN(C)CC4)CC3)c(OC)c2)nc1NC1CCOCC1 [gilteritinib] | 53% | 39% | 5% | 44% | 96% | -2.54% | 24% |
| CN1CCN(c2ccc(C(=O)Nc3n[nH]c4ccc(Cc5cc(F)cc(F)c5)cc34)c(NC3CCOCC3)c2)CC1 [entrectinib] | 3% | 16% | 1.33% | 18% | 95% | -5.43% | 91% |
| COc1cc2ncnc(Nc3ccc(F)c(Cl)c3)c2cc1NC(=O)/C=C/CN1CCCCC1 [dacomitinib] | 8% | 1.43% | 10% | 11% | 58% | -3.28% | 0.444% |
| Cn1cc(-c2cc3c(N4CCN(c5ncc([C@@](C)(N)c6ccc(F)cc6)cn5)CC4)ncnn3c2)cn1 [avapritinib] | 8% | -4.32% | 1.29% | 1.47% | 66% | -3% | 29% |
| CCn1c(=O)c(-c2cc(NC(=O)Nc3ccccc3)c(F)cc2Br)cc2cnc(NC)cc21 [ripretinib] | 15% | 2.32% | 69% | -0.411% | 50% | -4% | 26% |
